Experimental findings from US9593108B2, “Compounds and methods for antiviral treatment” (PTC Therapeutics, Inc., priority 2009, dated 2017) are described below.

Series [1] relates to HCV replicon RNA (GenBank Accession No. AJ242654). In words: HCV Replicon Assay (replicon RNA reduction and/or Fluc reporter signal). The note with it: Hepatitis C virus, 72 h, replicon-containing cells cultured with test compound for up to 3 days. It counts as cell-based, Hepatitis C virus. Put shortly: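 IC50 values mostly reflect the drop in replicon RNA, though Fluc reporter signal may also be used. Compound incubated with cells carrying the bicistronic replicon for as long as 3 days; interferon served as positive control.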
A general note: A replicon is a self-replicating genome or part of one, used to study replication in cells.

The IC50 is the concentration at which inhibition is half-maximal. A high value points to a need for much substance. Usually melting point stands for the temperature, or range, at which the solid turns liquid. `C[C@@H](NS(=O)(=O)c1ccc(-c2c(C#N)c3ccc(Cl)nc3n2C2CCC2)nc1)C(F)(F)F` [Cpd 162, 6-(6-chloro-3-cyano-1-cyclobutyl-1H-pyrrolo[2,3-b]pyridin-2-yl)-N-[(2R)-1,1,1-trifluoropropan-2-yl]pyridine-3-sulfonamide] returned a melting point of 172 to 178 °C. The compound also returned an IC50 in series [1] of less than 500 nM.

Regarding `Cc1cnc2c(c1)c(C#N)c(-c1ccc(S(=O)(=O)NC(C)(C)C(F)(F)F)cc1)n2C1CCC1` [Cpd 79, 4-(3-cyano-1-cyclobutyl-5-methyl-1H-pyrrolo[2,3-b]pyridin-2-yl)-N-(1,1,1-trifluoro-2-methylpropan-2-yl)benzenesulfonamide], the melting point was in the range of 180 to 181 °C. Further, the concentration for half-maximal inhibition (IC50) in series [1] is less than 500 nM.

`CCc1cnc2c(c1)c(C#N)c(-c1ccc(S(=O)(=O)N[C@@H](C)C(F)(F)F)cn1)n2-c1ccc(F)cn1` [Cpd 474, 6-[3-cyano-5-ethyl-1-(5-fluoropyridin-2-yl)-1H-pyrrolo[2,3-b]pyridin-2-yl]-N-[(2S)-1,1,1-trifluoropropan-2-yl]pyridine-3-sulfonamide]: the melting point lay within 175 to 177 °C. Also, the IC50 in series [1] was less than 500 nM.

The compound `CC(C)(NS(=O)(=O)c1ccc(-c2c(C(N)=O)c3cc(Cl)cnc3n2C2CCC2)nc1)C(F)(F)F` [Cpd 326, 5-chloro-1-cyclobutyl-2-{5-[(1,1,1-trifluoro-2-methylpropan-2-yl)sulfamoyl]pyridin-2-yl}-1H-pyrrolo[2,3-b]pyridine-3-carboxamide] came in with a melting point of 239 to 241 °C. The IC50 in series [1] is less than 500 nM.

In turn, `NC(=O)c1c(-c2ccc(S(=O)(=O)NC3(C(F)(F)F)CC3)cn2)n(C2CCC2)c2ncc(Cl)cc12` [Cpd 325, 5-chloro-1-cyclobutyl-2-(5-{[1-(trifluoromethyl)cyclopropyl]sulfamoyl}pyridin-2-yl)-1H-pyrrolo[2,3-b]pyridine-3-carboxamide] returned a melting point of 238 to 240 °C. This compound also registered an IC50 in series [1] of less than 500 nM.

On to `C[C@H](NS(=O)(=O)c1cnc(-c2c(C#N)c3cc(C#N)cnc3n2C2CCC2)nc1)C(F)(F)F` [Cpd 109, 2-(3,5-dicyano-1-cyclobutyl-1H-pyrrolo[2,3-b]pyridin-2-yl)-N-[(2S)-1,1,1-trifluoropropan-2-yl]pyrimidine-5-sulfonamide], for which the melting point lay within 216 to 219 °C. In series [1], the IC50 is less than 500 nM.

For `C[C@H](NS(=O)(=O)c1ccc(-c2c(C#N)c3cc(OC(F)F)cnc3n2C2CCC2)nc1)C(F)(F)F` [Cpd 122, 6-[3-cyano-1-cyclobutyl-5-(difluoromethoxy)-1H-pyrrolo[2,3-b]pyridin-2-yl]-N-[(2S)-1,1,1-trifluoropropan-2-yl]pyridine-3-sulfonamide], the melting point is 155 to 156 °C. The compound further registered an IC50 in series [1] of less than 500 nM.

In the case of `Cc1cnc2c(C#N)c(-c3ccc(S(=O)(=O)NC4(C(F)(F)F)CC4)cn3)n(C3CCCC3)c2c1` [Cpd 172, 6-(3-cyano-1-cyclopentyl-6-methyl-1H-pyrrolo[3,2-b]pyridin-2-yl)-N-[1-(trifluoromethyl)cyclopropyl]pyridine-3-sulfonamide], the melting point lay within 249 to 251 °C. This compound registered an IC50 in series [1] of less than 500 nM.

Turning to `Cc1cnc2c(C#N)c(-c3ccc(S(=O)(=O)N[C@@H](C)C(F)(F)F)cn3)n(-c3cscn3)c2c1` [Cpd 468, 6-[3-cyano-6-methyl-1-(1,3-thiazol-4-yl)-1H-pyrrolo[3,2-b]pyridin-2-yl]-N-[(2S)-1,1,1-trifluoropropan-2-yl]pyridine-3-sulfonamide], the melting point fell in the range of 244 to 245 °C. For the same compound, the IC50 in series [1] is less than 500 nM.

As for `Cc1cnc2c(c1)c(C#N)c(-c1ccc(S(=O)(=O)N[C@@H](C)C(F)(F)F)cn1)n2-c1ccccc1F` [Cpd 501, 6-[3-cyano-1-(2-fluorophenyl)-5-methyl-1H-pyrrolo[2,3-b]pyridin-2-yl]-N-[(2S)-1,1,1-trifluoropropan-2-yl]pyridine-3-sulfonamide], the melting point is 128 °C (dec.). Further, in series [1], the IC50 was less than 500 nM.

`Cc1cnc2c(c1)c(C#N)c(-c1ccc(S(=O)(=O)NC3(C)CC3)cn1)n2C1CCCC1` [Cpd 256, 6-(3-cyano-1-cyclopentyl-5-methyl-1H-pyrrolo[2,3-b]pyridin-2-yl)-N-(1-methylcyclopropyl)pyridine-3-sulfonamide]: the melting point lay within 143 to 153 °C. The IC50 in series [1] fell in the range of 500 to 2000 nM.

The compound `C[C@H](NS(=O)(=O)c1ccc(-c2c(C#N)c3cc(Cl)cnc3n2-c2ccccc2)nc1)C(F)(F)F` [Cpd 308, 6-(5-chloro-3-cyano-1-phenyl-1H-pyrrolo[2,3-b]pyridin-2-yl)-N-[(2S)-1,1,1-trifluoropropan-2-yl]pyridine-3-sulfonamide] displayed a melting point of 211 to 213 °C. The same compound yielded an IC50 in series [1] of less than 500 nM.

Compound `COc1cnc2c(c1)c(C#N)c(-c1ccc(S(=O)(=O)NC3CC3)cn1)n2C1CCC1` [Cpd 310, 6-(3-cyano-1-cyclobutyl-5-methoxy-1H-pyrrolo[2,3-b]pyridin-2-yl)-N-cyclopropylpyridine-3-sulfonamide] registered a melting point of 161 to 162 °C. This compound also showed an IC50 in series [1] of less than 500 nM.

`CC(C)NS(=O)(=O)c1ccc(-c2c(C#N)c3cc(C(F)(F)F)cnc3n2C2CCC2)nc1` [Cpd 244, 6-[3-cyano-1-cyclobutyl-5-(trifluoromethyl)-1H-pyrrolo[2,3-b]pyridin-2-yl]-N-(propan-2-yl)pyridine-3-sulfonamide] registered a melting point of 186 to 187 °C. In series [1], this compound had an IC50 of less than 500 nM.

The compound `Cc1cnc2c(c1)c(C#N)c(-c1ccc(S(=O)(=O)NC3(C)CC3)cc1)n2C1CCC1` [Cpd 77, 4-(3-cyano-1-cyclobutyl-5-methyl-1H-pyrrolo[2,3-b]pyridin-2-yl)-N-(1-methylcyclopropyl)benzenesulfonamide] returned a melting point of 188 to 190 °C. In addition, in series [1], the half-maximal inhibitory concentration (IC50) is less than 500 nM.

In turn, `COc1cnc2c(c1)c(C#N)c(-c1ccc(S(=O)(=O)N[C@@H](C)C(F)(F)F)cn1)n2-c1cnccn1` [Cpd 365, 6-[3-cyano-5-methoxy-1-(pyrazin-2-yl)-1H-pyrrolo[2,3-b]pyridin-2-yl]-N-[(2S)-1,1,1-trifluoropropan-2-yl]pyridine-3-sulfonamide] registered a melting point of 220 to 225 °C. The IC50 in series [1] is less than 500 nM.

The compound `C[C@@H](NS(=O)(=O)c1cnc(-c2c(C#N)c3ccc(C4CC4)nc3n2C2CCC2)nc1)C(F)(F)F` [Cpd 154, 2-(3-cyano-1-cyclobutyl-6-cyclopropyl-1H-pyrrolo[2,3-b]pyridin-2-yl)-N-[(2R)-1,1,1-trifluoropropan-2-yl]pyrimidine-5-sulfonamide] yielded a melting point of 244 to 249 °C. Moreover, the IC50 in series [1] was less than 500 nM.

The compound `Cc1cnc2c(c1)c(C#N)c(-c1ccc(NC(=O)NC(C)C)cc1)n2C1CCC1` [Cpd 266, 1-[4-(3-cyano-1-cyclobutyl-5-methyl-1H-pyrrolo[2,3-b]pyridin-2-yl)phenyl]-3-propan-2-ylurea] gave a melting point of 224 to 231 °C. In addition, the IC50 in series [1] is less than 500 nM.

As to `CSc1cnc2c(c1)c(C#N)c(-c1ccc(S(=O)(=O)N[C@H](C)C(F)(F)F)cn1)n2C1CCCC1` [Cpd 273, 6-[3-cyano-1-cyclopentyl-5-(methylsulfanyl)-1H-pyrrolo[2,3-b]pyridin-2-yl]-N-[(2R)-1,1,1-trifluoropropan-2-yl]pyridine-3-sulfonamide], the melting point lay in the range of 124 to 127 °C. Besides, the IC50 in series [1] is less than 500 nM.

As for `CC(C)(C)NS(=O)(=O)c1ccc(-c2c(C#N)c3cc(C(F)(F)F)cnc3n2-c2ccccc2)nc1` [Cpd 516, N-tert-butyl-6-[3-cyano-1-phenyl-5-(trifluoromethyl)-1H-pyrrolo[2,3-b]pyridin-2-yl]pyridine-3-sulfonamide], the melting point is 201.2 to 202.4 °C. In series [1], this compound yielded an IC50 of less than 500 nM.

Compound `Cc1cnc2c(c1)c(C#N)c(-c1ccc(S(=O)(=O)N[C@@H](C)C(F)(F)F)cn1)n2-c1ccncn1` [Cpd 431, 6-[3-cyano-5-methyl-1-(pyrimidin-4-yl)-1H-pyrrolo[2,3-b]pyridin-2-yl]-N-[(2S)-1,1,1-trifluoropropan-2-yl]pyridine-3-sulfonamide] had a melting point of 233 to 235 °C. The compound further showed an IC50 in series [1] of less than 500 nM.

As to `Cc1cnc2c(C#N)c(-c3ccc(S(=O)(=O)N[C@@H](C)C(F)(F)F)cn3)n(-c3ccncn3)c2c1` [Cpd 481, 6-[3-cyano-6-methyl-1-(pyrimidin-4-yl)-1H-pyrrolo[3,2-b]pyridin-2-yl]-N-[(2S)-1,1,1-trifluoropropan-2-yl]pyridine-3-sulfonamide], the melting point lay in the range of 265 to 267 °C. Further, in series [1], the IC50 was less than 500 nM.

For `CC1(NS(=O)(=O)c2cnc(-c3c(C#N)c4cc(Cl)cnc4n3C3CCC3)nc2)CC1` [Cpd 286, 2-(5-chloro-3-cyano-1-cyclobutyl-1H-pyrrolo[2,3-b]pyridin-2-yl)-N-(1-methylcyclopropyl)pyrimidine-5-sulfonamide], the melting point was 237 to 240 °C. In addition, in series [1], the IC50 was less than 500 nM.

With `N#Cc1c(-c2ccc(S(=O)(=O)NC3(C(F)(F)F)CC3)cn2)n(C2CCC2)c2cc(Cl)ncc12` [Cpd 98, 6-(6-chloro-3-cyano-1-cyclobutyl-1H-pyrrolo[3,2-c]pyridin-2-yl)-N-[1-(trifluoromethyl)cyclopropyl]pyridine-3-sulfonamide], the melting point lay in the range of 227 to 228 °C. The compound further showed an IC50 in series [1] of less than 500 nM.

For `COc1cnc2c(c1)c(C#N)c(-c1ccc(S(=O)(=O)N[C@@H](C)C(F)(F)F)cn1)n2C1CCCC1` [Cpd 248, 6-(3-cyano-1-cyclopentyl-5-methoxy-1H-pyrrolo[2,3-b]pyridin-2-yl)-N-[(2S)-1,1,1-trifluoropropan-2-yl]pyridine-3-sulfonamide], the melting point was in the range of 178 to 180 °C. The same compound came in with an IC50 in series [1] of less than 500 nM.
